According to US11596639B2, “Substituted indole Mcl-1 inhibitors” (Vanderbilt University, priority 2016, dated 2023):
Where two headings read alike, the source gives them in different places.

Experiments:
[1] = test system: H929 human cancer cell lines; test: Cellular viability / proliferation (Cell TiterGlo, 72 h); assay type: cell-based
Procedure, shortened: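 Cells were seeded at 1,000 cells/well in medium with 10% FBS and dosed 24 h later with a 2-fold serial dilution of compound (top concentration 50 μM, final DMSO <1%).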

[2] = molecular target: Mcl-1 (Homo sapiens (Human), UniProt Q07820); test: Fluorescence polarization anisotropy (FPA) competition assay, FITC-Bak or FITC-Bim BH3 peptide; assay type: binding; conditions: read-out: Ki for Inhibition of Mcl-1 by FPA assay
[3] = Homo sapiens, NCI-H929, 72 h, read-out: GI50 on cellular proliferation of H929 human cancer cell lines, H929 cells, 72 h, Cell TiterGlo, 10% FBS

Chain of Mcl-1 (Q07820 172-327): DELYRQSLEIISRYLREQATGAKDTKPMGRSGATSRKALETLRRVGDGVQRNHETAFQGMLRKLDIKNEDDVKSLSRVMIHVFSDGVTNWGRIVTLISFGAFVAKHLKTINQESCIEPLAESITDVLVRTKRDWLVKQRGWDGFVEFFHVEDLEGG

Row | SMILES | GI50 [1, 3] [nM] | Ki [2] [nM] | GI50 ([1]; H929 cells, 72 h, Cell TiterGlo, 10% FBS, read-out: GI50 on cellular proliferation of H929 human cancer cell lines) [nM]
1 | Cc1cc(OCCCc2c3n(c4c(-c5c(C)nn(C)c5C)c(Cl)ccc24)[C@H](C)CN(c2cn(C)c4ccc(C(=O)NO)cc24)C3=O)cc(C)c1Cl [Example 361, (R)-3-(7-Chloro-10-(3-(4-chloro-3,5-dimethylphenoxy)propyl)-4-methyl-1-oxo-6-(1,3,5-trimethyl-1H-pyrazol-4-yl)-3,4-dihydropyrazino[1,2-a]indol-2(1H)-yl)-N-hydroxy-1-methyl-1H-indole-5-carboxamide] | 290 | 2 | 
2 | Cc1cc(OCCCc2c3n(c4c(-c5c(C)nn(C)c5C)c(Cl)ccc24)[C@H](C)CN(c2cn(C)c4ccc(-c5ncn(CC(C)C)n5)cc24)C3=O)cc(C)c1Cl [Example 454, (R)-7-Chloro-10-(3-(4-chloro-3,5-dimethylphenoxy)propyl)-2-(5-(1-isobutyl-1H-1,2,4-triazol-3-yl)-1-methyl-1H-indol-3-yl)-4-methyl-6-(1,3,5-trimethyl-1H-pyrazol-4-yl)-3,4-dihydropyrazino[1,2-a]indol-1(2H)-one] | 2100 | 3.5 | 
3 | COc1cc(N2C[C@@H](C)n3c(c(CCCOc4cc(C)c(Cl)c(C)c4)c4ccc(Cl)c(-c5c(C)nn(C)c5C)c43)C2=O)c2cc(C(=O)O)n(C)c2c1 [Example 334, (M, R)-4-(7-Chloro-10-(3-(4-chloro-3,5-dimethylphenoxy)propyl)-4-methyl-1-oxo-6-(1,3,5-trimethyl-1H-pyrazol-4-yl)-3,4-dihydropyrazino[1,2-a]indol-2(1H)-yl)-6-methoxy-1-methyl-1H-indole-2-carboxylic acid] |  | < 1 | 1200
4 | Cc1cc(OCCCc2c3n(c4c(-c5c(C)nn(C)c5C)c(Cl)ccc24)CCCN(c2cccc4c(-c5nn[nH]n5)cn(C)c24)C3=O)cc(C)c1Cl [Example 15, 8-Chloro-11-[3-(4-chloro-3,5-dimethyl-phenoxy)propyl]-2-[1-methyl-3-(2H-tetrazol-5-yl)indol-7-yl]-7-(1,3,5-trimethylpyrazol-4-yl)-4,5-dihydro-3H-[1,4]diazepino[1,2-a]indol-1-one] | 11000 | 2.2 | 
5 | COCCn1c(C(N)=O)cc2cccc(N3C[C@@H](C)n4c(c(CCCOc5cc(C)c(Cl)c(C)c5)c5ccc(Cl)c(-c6c(C)nn(C)c6C)c54)C3=O)c21 [Example 354, (R)-7-(7-Chloro-10-(3-(4-chloro-3,5-dimethylphenoxy)propyl)-4-methyl-1-oxo-6-(1,3,5-trimethyl-1H-pyrazol-4-yl)-3,4-dihydropyrazino[1,2-a]indol-2(1H)-yl)-1-(2-methoxyethyl)-1H-indole-2-carboxamide] | 580 | 4.3 | 
6 | Cc1ccnc(Cn2c(C(=O)O)cc3cc(OC(F)(F)F)cc(N4C[C@@H](C)n5c(c(CCCOc6cc(C)c(Cl)c(C)c6)c6ccc(Cl)c(-c7c(C)nn(C)c7C)c65)C4=O)c32)c1 [Example 474, (R)-7-(7-Chloro-10-(3-(4-chloro-3,5-dimethylphenoxy)propyl)-4-methyl-1-oxo-6-(1,3,5-trimethyl-1H-pyrazol-4-yl)-3,4-dihydropyrazino[1,2-a]indol-2(1H)-yl)-1-((4-methylpyridin-2-yl)methyl)-5-(trifluoromethoxy)-1H-indole-2-carboxylic acid] | 1200 | 17 | 
7 | Cc1cc(OCCCc2c3n(c4c(-c5c(C)nn(CC6CCOCC6)c5C)c(Cl)ccc24)[C@H](C)CN(c2cn(C)c4ccc(C(=O)O)cc24)C3=O)cc(C)c1Cl [Example 262, (R)-3-(7-chloro-10-(3-(4-chloro-3,5-dimethylphenoxy)propyl)-6-(3,5-dimethyl-1-((tetrahydro-2H-pyran-4-yl)methyl)-1H-pyrazol-4-yl)-4-methyl-1-oxo-3,4-dihydropyrazino[1,2-a]indol-2(1H)-yl)-1-methyl-1H-indole-5-carboxylic acid] | 450 | < 1 | 
8 | Cc1cc(OCCCc2c3n(c4c(-c5c(C)nn(C)c5C)c(Cl)ccc24)[C@H](C)CN(c2cccc4cc(-c5nnco5)n(C)c24)C3=O)cc(C)c1Cl [Example 341, (R)-7-Chloro-10-(3-(4-chloro-3,5-dimethylphenoxy)propyl)-4-methyl-2-(1-methyl-2-(1,3,4-oxadiazol-2-yl)-1H-indol-7-yl)-6-(1,3,5-trimethyl-1H-pyrazol-4-yl)-3,4-dihydropyrazino[1,2-a]indol-1(2H)-one] | 920 | 4.2 | 
9 | Cc1cc(OCCCc2c3n(c4c(-c5c(C)nn(C)c5C)c(Cl)ccc24)[C@H](C)CN(c2cccc4c2c(C(=O)O)cn4C)C3=O)cc(C)c1Cl [Example 182, 4-[(4R)-7-chloro-10-[3-(4-chloro-3,5-dimethyl-phenoxy)propyl]-4-methyl-1-oxo-6-(1,3,5-trimethylpyrazol-4-yl)-3,4-dihydropyrazino[1,2-a]indol-2-yl]-1-methyl-indole-3-carboxylic acid] | 1500 | < 1 | 
10 | Cc1cc(OCCCc2c3n(c4c(-c5c(C)nn(C)c5C)c(Cl)ccc24)[C@H](C)CN(c2cccc4cc(C(=O)O)[nH]c24)C3=O)cc(C)c1Cl [Example 233, 7-[(4R)-7-chloro-10-[3-(4-chloro-3,5-dimethyl-phenoxy)propyl]-4-methyl-1-oxo-6-(1,3,5-trimethylpyrazol-4-yl)-3,4-dihydropyrazino[1,2-a]indol-2-yl]-1H-indole-2-carboxylic acid] | 1400 | < 1 | 
11 | Cc1cc(OCCCc2c3n(c4c(-c5c(C)nn(C)c5C)c(Cl)ccc24)[C@H](C)CN(c2cn(CCN(C)C)c4cc(C(=O)O)ccc24)C3=O)cc(C)c1Cl [Example 340, (R)-3-(7-Chloro-10-(3-(4-chloro-3,5-dimethylphenoxy)propyl)-4-methyl-1-oxo-6-(1,3,5-trimethyl-1H-pyrazol-4-yl)-3,4-dihydropyrazino[1,2-a]indol-2(1H)-yl)-1-(2-(dimethylamino)ethyl)-1H-indole-6-carboxylic acid] | 1800 | 4.4 | 
12 | Cc1cc(OCCCc2c3n(c4c(-c5c(C)nn(C)c5C)c(Cl)ccc24)[C@H](C)CN(c2cccc4cc5n(c24)CCN(CCC(C)C)C5=O)C3=O)cc(C)c1Cl [Example 229, (4R)-7-chloro-10-[3-(4-chloro-3,5-dimethyl-phenoxy)propyl]-2-(2-isopentyl-1-oxo-3,4-dihydropyrazino[1,2-a]indol-6-yl)-4-methyl-6-(1,3,5-trimethylpyrazol-4-yl)-3,4-dihydropyrazino[1,2-a]indol-1-one] | 9300 | 3.7 | 
13 | Cc1cc(OCCCc2c3n(c4c(-c5c(C)nn(C)c5C)c(Cl)ccc24)[C@H](C)CN(c2ccc(C(=O)O)c4ccccc24)C3=O)cc(C)c1Cl [Example 189, (R)-4-(7-Chloro-10-(3-(4-chloro-3,5-dimethylphenoxy)propyl)-4-methyl-1-oxo-6-(1,3,5-trimethyl-1H-pyrazol-4-yl)-3,4-dihydropyrazino[1,2-a]indol-2(1H)-yl)-1-naphthoic acid] | 920 | 1.2 | 
14 | Cc1cc(OCCCc2c3n(c4c(-c5c(C)nn(C)c5C)c(Cl)ccc24)[C@H](C)CN(c2cccc4cc(C(=O)O)oc24)C3=O)cc(C)c1Cl [Example 194, (R)-7-(7-Chloro-10-(3-(4-chloro-3,5-dimethylphenoxy)propyl)-4-methyl-1-oxo-6-(1,3,5-trimethyl-1H-pyrazol-4-yl)-3,4-dihydropyrazino[1,2-a]indol-2(1H)-yl)benzofuran-2-carboxylic acid] | 2300 | < 1 | 
